From article PMC4924691, “Inhibition of the p53/hDM2 protein-protein interaction by cyclometallated iridium(III) compounds” (Oncotarget, 2016) come the findings set out here.

One experiment deals with A549. Conditions: read-out: IC50 (MTT), A549; human lung carcinoma, p53 wt, 72 h. On the procedure: (§1) The cytotoxicity of 1 towards ten cancers cell lines with different p53 statuses (wt, mut or null) was subsequently examined assessed using the MTT assay (Supplementary Table S2).
(§2) Inhibition of cell growth was measured using the MTT reagent (3-(4, 5-dimethylthiazol-2-yl)-2, 5-diphenyltetrazolium bromide). Different cell lines with variable expression levels of p53 protein (A375, A549, HeLa, A2780, A431, MCF7, MD-MBA-231, MD-MBA-468, T47D and H1299 cell lines) were plated onto 96-well plates at a density of 4, 000 cells/well overnight prior to the addition of 1 at different concentrations ranging from 0.01–100 μM for a further 72 h. 10 μL MTT reagent (5 mg/mL) was added to the wells and the cells were incubated for an additional 4 h before 100 μL of DMSO was added to the wells. The absorbance of each well was read on a SpectraMax M5 microplate reader (Molecular Devices) at the wavelength of 570 nm.

For another experiment, the system named is A431. Conditions: read-out: IC50 (MTT), A431; human colon carcinoma (so in the source), p53 wt, 72 h. On the procedure:
as §1, §2

Another experiment deals with A375. Conditions: read-out: IC50 (MTT), A375; human malignant melanoma, p53 wt, 72 h. The procedure:
as §1, §2

The test system of a further experiment is MCF7. Conditions: read-out: IC50 (MTT), MCF7; human breast carcinoma, p53 wt, 72 h. On the procedure: as §1, §2
A further experiment has as its system H1299. Conditions: read-out: IC50 (MTT), H1299; human lung carcinoma, p53 null, 72 h. The procedure:
as §1, §2

A further experiment has as its system HeLa. Conditions: read-out: IC50 (MTT), HeLa; human cervix carcinoma, p53 wt, 72 h. The procedure: as §1, §2
In a further experiment the test system is MD-MBA-231. Conditions: read-out: IC50 (MTT), MD-MBA-231; human breast carcinoma, p53 mut, 72 h. On the procedure: as §1, §2
A further experiment concerns MD-MBA-468. Conditions: read-out: IC50 (MTT), MD-MBA-468; human breast carcinoma, p53 mut, 72 h. The procedure:
as §1, §2

A further experiment has as its system T47D. Conditions: read-out: IC50 (MTT), T47D; human breast carcinoma, p53 mut, 72 h. The procedure: as §1, §2
The next experiment concerns A2780. Conditions: read-out: IC50 (MTT), A2780; human ovarian carcinoma, p53 wt, 72 h. The procedure:
as §1, §2

The next experiment has as its target p53/hDM2 PPI (Homo sapiens, UniProt Q00987). Conditions: read-out: IC50, decrease of BRET (p53-HaloTag / NanoLuc-hDM2); A375 cells, 6 h.
For a further experiment, the system named is T1, p53/hDM2 interaction.
T1 construct: host or cells: A375 cells
Description: Pull-down assay of p53-Flag/hDM2-myc in A375 cells. The format is cell-based, human. Conditions: 6 h of treatment. On the procedure:
A pull-down assay was conducted to further examine the effect of 1 on the p53/hDM2 interaction. A375 cells were co-transfected with cDNAs encoding p53-Flag and hDM2-myc fusion proteins. After 6 h of treatment with NVP-CGM097 or 1, p53/hDM2 complexes were immunoprecipitated using anti-Flag magnetic beads and analysed by immunoblotting.
A375 cells seeded in 6-well plates were co-transfected with pcDNA-Flag-p53 (Addgene) and pCMV-myc3-hDM2 (Addgene) for 6 h using TurboFect transfection reagent following the instruction from manufacturer. Cells were then cultured in Dulbecco's Modified Eagle's Medium (DMEM) complete medium overnight. Serial dilutions of organometallic compounds in low FBS buffer were placed into the wells, and incubated with cells for additional 6 h. Protein samples were collected, and the concentration in the supernatant was determined with the bicinchoninic acid (BCA) method. The […] of p53/hDM2 in the protein samples were pulled down using anti-Flag magnetic beads to capture the FLAG fusion proteins (Sigma) as previously described. The protein-binding beads were washed three time with TBS buffer (50 mM Tris HCl, 150 mM NaCl, pH 7.4) to remove non-specifically bound proteins, and subsequently subjected to the sodium dodecyl sulfate-polyacrylamide gel electrophoresis (SDS-PAGE) by detection with anti-Flag (1:1000, Sigma-Aldrich) and anti-myc antibodies (1:1000, Beyotime).

Another experiment has as its system caspase-3/7. Conditions: A375 cells, 6 h, dose-dependent. On the procedure:
(§3) Transactivation of p53 restricts cellular proliferation by inducing apoptosis and cycle arrest. Therefore, a terminal deoxynucleotidyl transferase (TdT)-mediated dUTP nick and labelling (TUNEL) and Hoechst staining assay were then performed to investigate DNA fragmentation, a hallmark of apoptosis, in apoptotic cells. […] Finally, the effect of 1 on caspase-3/7, an apoptotic executioner under the control of p53, was investigated in A375 cells using a homogeneous luminescence assay.

A further experiment has as its system A375 cells. Conditions: 0.3 μM, 6 h. The procedure:
as §3

Experiment [1] deals with p53-driven luciferase activity. Conditions: A375 cells carrying endogenous wt p53, 6 h.
Description: A375 cells were co-transfected with p53 luciferase reporter gene (Addgene) and Renilla luciferase (Rluc) control reporter vectors at the ratio of 10:1 for 6 h in a 6-well plate. After transfection, cells were cultivated for another 18 h in the complete DMEM medium. Cells were then plated in a 96-well plate overnight. Serial dilutions of 1 were then added to the wells and the plate was incubated for 6 h. Luciferase reporter activity was then measured according to instruction of a dual reporter assay system (Progema) as previous reported [50].

p53/hDM2 PPI, sequence (Q00987 whole entry): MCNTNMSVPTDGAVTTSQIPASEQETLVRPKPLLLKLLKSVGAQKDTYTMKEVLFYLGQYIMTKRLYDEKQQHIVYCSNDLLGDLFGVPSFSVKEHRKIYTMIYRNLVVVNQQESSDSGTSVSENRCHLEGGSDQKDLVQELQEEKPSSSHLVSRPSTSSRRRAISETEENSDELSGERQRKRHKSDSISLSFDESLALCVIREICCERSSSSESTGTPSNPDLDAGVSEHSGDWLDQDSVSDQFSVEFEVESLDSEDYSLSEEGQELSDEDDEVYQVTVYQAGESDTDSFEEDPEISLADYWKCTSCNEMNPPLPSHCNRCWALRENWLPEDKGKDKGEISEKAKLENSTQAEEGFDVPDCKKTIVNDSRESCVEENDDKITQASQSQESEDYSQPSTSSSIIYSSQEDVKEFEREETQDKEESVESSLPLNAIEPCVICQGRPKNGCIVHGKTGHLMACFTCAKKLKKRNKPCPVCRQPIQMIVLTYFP
Description for p53/hDM2 PPI: A NanoBRET protein:protein interaction system (Promega) was used to detect p53/hDM2 protein-protein interactions by measuring energy transfer from a bioluminescent protein donor to a fluorescent protein acceptor. […] The transfected cells were replated in a white 96-well plate with HaloTag® NanoBRET 618 ligand (100 nM) in Opti-MEM® I reduced serum medium with 4% fetal bovine serum (FBS) and incubated overnight. […] 25 μL of 1X Nano-Glo® substrate in Opti-MEM® I reduced serum medium was added to the wells. The plate was then measured using 460 nm filter and 610 nm filters in SpectraMax M5 microplate reader (Molecular Devices).

Turning to `CCc1ccc2[c](c1)[Ir-3]13([c]4cc(CC)ccc4-c4cccc[n+]41)([n+]1ccccc1-2)[n+]1ccc(Cl)c2ccc4c(Cl)cc[n+]3c4c21.F[P-](F)(F)(F)(F)F` [Compound 1, 4,7-dichloro-1, 10-phenanthrolinebis(2-(4-ethylphenyl)pyridine)iridium(III) hexafluorophosphate], the IC50 in the experiment with A549 amounted to 0.232 ± 0.0218 µM; in the experiment on A431, 0.416 ± 0.0374 µM; in the experiment on A375, 0.647 ± 0.0354 µM; in the experiment with MCF7, 0.547 ± 0.041 µM; with H1299, 2.2 ± 0.0383 µM; with HeLa, 0.48 ± 0.0447 µM. For the same molecule, the IC50 in the experiment with MD-MBA-231 was 0.835 ± 0.0429 µM; in the experiment on MD-MBA-468, 1.89 ± 0.0233 µM; with T47D it was 0.783 ± 0.483 µM; with A2780 it was 0.495 ± 0.032 µM; at p53/hDM2 PPI, ~1 µM. Moreover, the “amount of precipitated hDM2 (pulled down with p53-Flag)” value in the experiment with p53/hDM2 interaction is reported as “decreased”. Further, the caspase-3/7 activities result with caspase-3/7 is “significantly activate”. Also, the “DNA fragmentation (TUNEL)” value in the experiment on A375 cells is listed as “induce DNA fragmentation”. In experiment [1], the p53-dependent luciferase activity entry is recorded as “increase”.
